In US9656990B2, “Cathepsin cysteine protease inhibitors” (Merck Sharp & Dohme Corp., priority 2014, dated 2017):

Tests used:
human cathepsin K = human cathepsin K (UniProt P43236, Y175D/V274L, species not given); experiment: Cathepsin K Assay; type: biochemical; conditions: IP from dose response curve; Z-Leu-Arg-AMC substrate, pH 5.5; read-out: hrbCat K (IP (nM))
human cathepsin F = target: T1, human cathepsin F (Homo sapiens, UniProt Q9UBX1); experiment: Cathepsin F Assay; type: biochemical; conditions: IP from dose response curve; Z-Phe-Arg-AMC substrate, pH 5.5; read-out: hCat F (IP (nM))
T1 sequence (Q9UBX1 271-484): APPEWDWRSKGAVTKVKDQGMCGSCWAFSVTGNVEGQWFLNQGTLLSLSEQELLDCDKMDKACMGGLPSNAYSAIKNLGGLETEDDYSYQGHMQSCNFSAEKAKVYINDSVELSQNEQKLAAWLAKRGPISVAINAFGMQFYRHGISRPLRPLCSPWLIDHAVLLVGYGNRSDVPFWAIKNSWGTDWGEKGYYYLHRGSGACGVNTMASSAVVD
Procedure: Serial dilutions (1/3) from 500 μM down to 0.025 μM of test compounds were prepared in dimethyl sulfoxide (DMSO). Then 0.5 μL of DMSO from each dilution were added to 18.75 μL of assay buffer (MES, 50 mM (pH 5.5); EDTA, 2.5 mM; DTT, 2.5 mM and 10% DMSO) containing human cathepsin F (10 nM) in assay buffer solution. The assay solutions were mixed for 5-10 seconds on a shaker plate and incubated for 15 minutes at room temperature. Z-Phe-Arg-AMC (8 μM) in 6.25 μL of assay buffer was added to the assay solutions. Hydrolysis of the coumarin leaving group (AMC) was followed by spectrofluorometry (Exλ=360 nm; Emλ=460 nm) for 20 minutes. Percent of inhibition were calculated by fitting experimental values to standard mathematical model for dose response curve.

Compound | IC50 (human cathepsin K) [nM] | IC50 (human cathepsin F) [nM]
CN=S1(=O)CCN(c2ccc(-c3cn(-c4ncccc4F)nc3[C@@H]3CC(F)(F)CC[C@H]3C(=O)N[C@H](C#N)C(C)C)cc2)CC1 [Example 36, (1R,2R)-N-((S)-1-cyano-2-methylpropyl)-4,4-difluoro-2-(1-(3-fluoropyridin-2-yl)-4-(4-(1-(methylimino)-1-oxidothiomorpholino)phenyl)-1H-pyrazol-3-yl)cyclohexanecarboxamide] | 8.79 | 8180
N#CC1(NC(=O)[C@@H]2CCCC[C@H]2c2nn(-c3ccc(F)cn3)cc2-c2ccc(N3CCS(=N)(=O)CC3)cc2)CC1 [Example 5, (1R,2R)—N-(1-Cyanocyclopropyl)-2-(1-(5-fluoropyridin-2-yl)-4-(4-(1-imino-1-oxidothiomorpholino)phenyl)-1H-pyrazol-3-yl)cyclohexanecarboxamide] | 1.53 | 877
Cc1c(-c2ccc(N3CCS(=O)(=O)CC3)cc2)c([C@@H]2CCCC[C@H]2C(=O)N[C@H](C#N)C(C)C)nn1-c1ncccc1F [Example 43, (1R,2R)-N-((S)-1-cyano-2-methylpropyl)-2-(4-(4-(1,1-dioxidothiomorpholino)phen-yl)-1-(3-fluoropyridin-2-yl)-5-methyl-1H-pyrazol-3-yl)cyclohexanecarboxamide] | 12.1 | 4550
N#CC1(NC(=O)[C@@H]2CCCC[C@H]2c2nn(-c3cnc(O)nc3)cc2-c2ccc(N3CCS(=O)(=O)CC3)cc2)CC1 [Example 170, (1R,2R)-N-(1-cyanocyclopropyl)-2-(4-(4-(1,1-dioxidothiomorpholino)phen-yl)-1-(2-hydroxypyrimidin-5-yl)-1H-pyrazol-3-yl)cyclohexanecarboxamide] | 1.88 | 2530
Cc1c(-c2ccc(N3CCS(=O)(=O)CC3)cc2)c([C@@H]2CCCC[C@H]2C(=O)NC2(C#N)CC2)nn1-c1ccc(F)cc1 [Example 139, (1R,2R)-N-(1-cyanocyclopropyl)-2-(4-(4-(1,1-dioxidothiomorpholino)phen-yl)-1-(4-fluorophenyl)-5-methyl-1H-pyrazol-3-yl)cyclohexanecarboxamide] | 7.48 | 649
Cn1cc(-n2cc(-c3ccc(N4CCS(=O)(=O)CC4)cc3)c([C@@H]3CCCC[C@H]3C(=O)NC3(C#N)CC3)n2)cn1 [Example 171, (1R,2R)-N-(1-cyanocyclopropyl)-2-(4-(4-(1,1-dioxidothiomorpholino)phen-yl)-1′-methyl-1′H-[1,4′-bipyrazol]-3-yl)cyclohexanecarboxamide] | 3.38 | 2760
N#CC1(NC(=O)[C@@H]2CCCC[C@H]2c2nn(-c3ccc(F)cc3F)cc2-c2ccc(N3CCS(=O)(=O)CC3)cc2)CC1 [Example 131, (1R,2R)-N-(1-cyanocyclopropyl)-2-(1-(2,4-difluorophenyl)-4-(4-(1,1-dioxidothiomorpholino)phen-yl)-1H-pyrazol-3-yl)cyclohexanecarboxamide] | 2.49 | 1540
N#CC1(NC(=O)[C@@H]2CC(F)(F)CC[C@H]2c2nn3ccccc3c2-c2ccc(C(=O)N3CCOCC3)cc2)CC1 [Example 13, (1R,2R)—N-(1-cyanocyclopropyl)-5,5-difluoro-2-(3-(4-(morpholine-4-carbonyl)phenyl)pyrazolo[1,5-a]pyridin-2-yl)cyclohexanecarboxamide] | 4.84 | 339
N#CC1(NC(=O)[C@@H]2CC3CC3C[C@H]2c2nn(-c3ccc(F)cc3)cc2-c2ccc(N3CCS(=O)(=O)CC3)cc2)CC1 (single isomer, unassigned) [Example 4, (1R or 1S,3R,4R,6S or 6R)—N-(1-Cyanocyclopropyl)-4-(4-(4-(1,1-dioxidothiomorpholino)phenyl)-1-(4-fluorophenyl)-1H-pyrazol-3-yl)bicyclo[4.1.0]heptane-3-carboxamide] | 0.93 | 258
N#CCNC(=O)[C@H]1CC(F)(F)CC[C@@H]1c1nn(-c2ccc(F)cc2)cc1-c1ccc(N2CCS(=O)(=O)CC2)cc1 [Example 82, (1S,2S)-N-(cyanomethyl)-2-(4-(4-(1,1-dioxidothiomorpholino)phen-yl)-1-(4-fluorophenyl)-1H-pyrazol-3-yl)-5,5-difluorocyclohexanecarbox-amide] | 144 | 1400
N#CC1(NC(=O)[C@@H]2CCCC[C@H]2c2nn(-c3ccc(OC(F)F)cc3)cc2-c2ccc(N3CCS(=O)(=O)CC3)cc2)CC1 [Example 111, (1R,2R)-N-(1-cyanocyclopropyl)-2-(1-(4-(difluoromethoxy)phenyl)-4-(4-(1,1-dioxidothiomorpholino)phen-yl)-1H-pyrazol-3-yl)cyclohexanecarboxamide] | 0.86 | 392
N#CC(CC(F)(F)F)NC(=O)[C@@H]1CC(F)(F)CC[C@H]1c1nn2ccccc2c1-c1ccc(N2CCS(=O)(=O)CC2)cc1 (single isomer, unassigned) [Example 74, (1R,2R)-N-((S or R)-1-cyano-3,3,3-trifluoropropyl)-2-(3-(4-(1,1-dioxidothiomorpholino)phen-yl)pyrazolo[1,5-a]pyridin-2-yl)-5,5-difluorocyclohexanecarbox-amide] | 7.69 | 252
N#CC1(NC(=O)[C@@H]2CCCC[C@H]2c2nn(-c3ccc(C(O)C(F)(F)F)cc3)cc2-c2ccc(N3CCS(=O)(=O)CC3)cc2)CC1 (mixture of isomers) [Example 113, (1R,2R)-N-(1-cyanocyclopropyl)-2-(4-(4-(1,1-dioxidothiomorpholino)phen-yl)-1-(4-((S and R)-2,2,2-trifluoro-1-hydroxyethyl)phenyl)-1H-pyrazol-3-yl)cyclohexanecarboxamide] | 0.88 | 360
Cc1c(-c2ccc(N3CCS(=O)(=O)CC3)cc2)c([C@@H]2CCC(F)(F)C[C@H]2C(=O)NC2(C#N)CC2)nn1-c1ccc(F)cc1 [Example 26, (1R,2R)-N-(1-cyanocyclopropyl)-2-(4-(4-(1,1-dioxidothiomorpholino)phen-yl)-1-(4-fluorophenyl)-5-methyl-1H-pyrazol-3-yl)-5,5-difluorocyclohexanecarbox-amide] | 0.67 | 168
CC(C)N=S1(=O)CCN(c2ccc(-c3cn(-c4ccc(F)cc4)nc3[C@@H]3CCCC[C@H]3C(=O)NC3(C#N)CC3)cc2)CC1 [Example 140, (1R,2R)-N-(1-cyanocyclopropyl)-2-(1-(4-fluorophenyl)-4-(4-(1-(isopropylimino)-1-oxidothiomorpholino)phenyl)-1H-pyrazol-3-yl)cyclohexanecarboxamide] | 1.29 | 782
CN=S1(=O)CCN(c2ccc(-c3cn(-c4ccc(F)cn4)nc3[C@@H]3CC(F)(F)CC[C@H]3C(=O)NC(C)C#N)cc2)CC1 (single isomer, unassigned) [Example 25, (1R,2R)-N-((S or R)-1-cyanoethyl)-4,4-difluoro-2-(1-(5-fluoropyridin-2-yl)-4-(4-(1-(methylimino)-1-oxidothiomorpholino)phenyl)-1H-pyrazol-3-yl)cyclohexanecarboxamide] | 0.52 | 431
N#CC1(NC(=O)[C@@H]2CC3CC3C[C@H]2c2nn(-c3ccc(F)cn3)cc2-c2ccc(N3CCS(=O)(=O)CC3)cc2)CC1 (single isomer, unassigned) [Example 153, (1R,3R,4R,6S) or (1S,3R,4R,6R)-N-(1-cyanocyclopropyl)-4-(4-(4-(1,1-dioxidothiomorpholino)phen-yl)-1-(5-fluoropyridin-2-yl)-1H-pyrazol-3-yl)bicyclo[4.1.0]heptane-3-carboxamide] | 0.66 | 265
N#CC1(NC(=O)[C@@H]2C[C@@H](F)CC[C@H]2c2nn(-c3ccc(F)cn3)cc2-c2ccc(N3CCS(=O)(=O)CC3)cc2)CC1 [Example 10, (1R,2R,5S)—N-(1-Cyanocyclopropyl)-2-(4-(4-(1,1-dioxidothiomorpholino)phenyl)-1-(5-fluoropyridin-2-yl)-1H-pyrazol-3-yl)-5-fluorocyclohexanecarboxamide] | 0.89 | 1050
CS(=O)(=O)C1CN(c2ccc(-c3cn(-c4ccc(F)cc4)nc3[C@@H]3CCCC[C@H]3C(=O)NC3(C#N)CC3)cc2)C1 [Example 94, (1R,2R)-N-(1-cyanocyclopropyl)-2-(1-(4-fluorophenyl)-4-(4-(3-(methylsulfonyl)azetidin-1-yl)phenyl)-1H-pyrazol-3-yl)cyclohexanecarboxamide] | 2.57 | 2780
C[C@@H](C#N)NC(=O)[C@@H]1C[C@@H](F)CC[C@H]1c1nn(-c2ccc(F)cn2)cc1-c1ccc(N2CCS(=N)(=O)CC2)cc1 [Example 60, (1R,2R,5S)-N-((S)-1-cyanoethyl)-5-fluoro-2-(1-(5-fluoropyridin-2-yl)-4-(4-(1-imino-1-oxidothiomorpholino)phenyl)-1H-pyrazol-3-yl)cyclohexanecarboxamide] | 1.43 | 674
